# Columns and labels:
# [1] = test system: Male Wistar rats; assay: Glucose stimulated insulin secretion in rats, hyperglycemic clamp; format: in vivo
# Experimental: Male Wistar rats (Taconic farms, USA), weighing 300-350 gram, had catheters surgically implanted into the jugular and femoral veins and allowed to recover for one week following the surgery. On the day before the experiment, food was removed in the afternoon for an overnight fast. The following morning animals were randomly assigned to three treatment groups, vehicle (n=19) and either 1 mg/kg (n=8) or 10 mg/kg (n=8) of a GPR119 agonist (Example 1), and baseline blood samples were collected from the jugular vein. Animals were then administered either vehicle or Example 1 by oral gavage. A second blood sample was collected approximately 90 minutes after the oral gavage immediately prior to starting the hyperglycemic clamp. The clamp was initiated by infusing an empirically determined glucose bolus over 15-30 seconds into the femoral vein, followed by a variable rate glucose infusion adjusted to achieve a stable plasma glucose level of 190-210 mg/dl. After infusion of the glucose bolus, blood samples were collected every 5 minutes for glucose measurements. Samples for C-peptide level were collected a 2, 5, 10, 15, 20, 25, 30, 46, 60, 90 and 120 minutes during the hyperglycemic clamp. C-peptide was measured as a surrogate for insulin as it is co-secreted with insulin in equimolar amount with lower hepatic clearance, thus a better reflection of insulin secretion from the pancreatic β-cells. All blood samples were placed in individual tubes containing a gel clot activator (Cat # T-MG, Terumo Medial Corporation, Elkton, Md.) and allowed to clot in room temperature for 20 min before centrifugation and collection of serum. Glucose levels were measured using an Olympus AU640 analyzer (Olympus America Inc, Melville, N.Y.), and C-peptide levels by an RIA (Linco Diagnostic services, St Charles, Mo.). The rats were sacrificed at the end of the study by an overdose of Nembutal.
# There was no difference in plasma glucose levels between treatment groups. […] The characteristic biphasic insulin secretion response (measured as an increase in C-peptide levels) elicited by the rapid increase in plasma glucose levels is shown in FIG. 13, with the first phase occurring within the first 5 minutes and the second phase from 15 minutes and beyond.
# [2] = test system: C57BL/6 male mice; assay: Effect of a GPR119 agonist on circulating GLP-1 and GIP in vivo in mice; details: fasted mice, 1, 3, 10, 30 or 60 mg/kg oral gavage, 60 min after dosing
# Experimental: Ten weeks old C57BL/6 male mice (Taconic Farms, USA) were fasted overnight then randomly distributed into 6 treatment groups (n=10 mice per treatment group) receiving either vehicle (0.5% HPMC/0.1% Tween80), or a GPR119 agonist (Example 1) at five different doses (1, 3, 10, 30 or 60 mg/kg) by oral gavage. All animals were dosed with a volume of 10 mL/kg of their designated treatment. Sixty minutes after the oral gavage the mice were anesthetized using isofluorane for collection of blood samples by cardiac puncture. All mice were euthanized by cervical dislocation immediately following the cardiac puncture. […] Total GLP-1 levels were determined using a MULTI-ARRAY® electrochemoluminescence assay from Meso Scale Discovery (Cat #K110-FAC-2; Gaithersburg, Md.). Total GIP levels were determined using an ELISA assay (Cat# EZRMGIP-55K, Linco Diagnostic Services, St Charles, Mo.).
# Data is represented as box plots summarizing the distribution of individual data point for each treatment group. […] FIG. 1 and FIG. 2 show total GLP-1 and total GIP respectively measured in circulation following administration of vehicle or a GPR119 agonist (Example 1) at doses as indicated.
# [3] = test system: Male Sprague-Dawley rats; assay: Effect on circulating GLP-1 and GIP in vivo in rats; details: 10 mg/kg oral
# Experimental: On the day before the experiment, food was removed in the afternoon and the following morning animals were randomly assigned to two treatment groups, vehicle (n=7) or a GPR119 agonist (Example 1; n=8). Blood samples were collected prior to, and 90 minutes following oral administration of either vehicle (0.5% HPMC/0.1% Tween80) or 10 mg/kg of Example 1. Blood samples were treated as described above and analyzed for incretin hormones, plasma glucose and insulin. The rats were sacrificed at the end of the study by an overdose of Nembutal® pentobarbital.
# Data is represented as line graphs of the measurements prior to gavage (Pre) and 90 min following administration of vehicle or GPR119 agonist (Post) analyzed for total GLP-1 (FIG. 7), total GIP (FIG. 8), plasma glucose (FIG. 9) and insulin (FIG. 10) for individual animals.
# [4] = test system: transgenic wild type (WT) and GPR119 knock-out (KO) mice; assay: Oral glucose tolerance in wild type and GPR119 knockout mice; format: in vivo; details: 2 g/kg dextrose oral 1 h after dosing
# Experimental: Male transgenic wild type (WT) and GPR119 knock-out (KO) mice (Charles River Laboratories, USA), at an age of 12 weeks, were fasted overnight (approximately 15 hrs) then randomly grouped (n=8-10) to receive vehicle (0.5% HPMC/0.1% Tween80), a GPR119 agonist (30 mg/kg) or a positive control (10 mg/kg), the DPPIV inhibitor as described above. Vehicle or compounds were delivered orally by oral gavage at a volume of 10 mL/kg, and the tip of tail was nicked using a scalpel to allow whole blood glucose measurements. One hour after administration of vehicle or test compounds, dextrose was administered orally at 2 g/kg. Whole blood glucose levels were measured prior to, and 10, 20, 30, 45, 60, 90 and 120 min after the oral glucose load using a Glucometer (Freestyle, Therasense) from the tip of tail. At the end of the study the mice were sacrificed by cervical dislocation.
# The glucose tolerance was calculated as the area under the glucose curve (AUC). Data is represented as box plots summarizing the distribution of data for each treatment group, as described above. Horizontal lines represent the mean data.
# [5] = fasted rats, 90 min after dosing vs pre-dose
# [6] = rats, 90 min, vs vehicle or baseline
smiles,measurement,setting,value
"CC(C)OC(=O)N1CCC(Oc2ncnc3c2CCN3c2ccc(S(C)(=O)=O)cc2F)CC1 [Example 1, 1-Methylethyl 4-({7-[2-fluoro-4-(methylsulfonyl)phenyl]-6,7-dihydro-5H-pyrrolo[2,3-d]pyrimidin-4-yl}oxy)-1-piperidinecarboxylate]",glucose infusion rates (GIR) required to sustain the hyperglycemic clamp,"[1]; 10 mg/kg oral, compared to 1 mg/kg or vehicle",required more exogenous glucose
same,C-peptide levels (surrogate for insulin secretion),"[1]; 10 mg/kg oral, compared to vehicle or 1 mg/kg, throughout the hyperglycemic clamp",significantly increased
same,plasma glucose levels achieved during the hyperglycemic clamp,"[1]; 1 or 10 mg/kg oral vs vehicle, clamp started about 90 min after gavage",no difference
same,first (0-5 min) and second phase (15-90 min) glucose stimulated insulin secretory response,[1]; hyperglycemic clamp,augments
same,circulating total GIP levels,[2],dose dependent increase
same,circulating total GLP-1 levels,[2],dose dependent increase
same,circulating levels of total GIP,[3]; [5],increases
same,circulating levels of total GLP-1,[3]; [5],increases
same,fasting glucose,[3]; [6],not significantly affected
same,fasting insulin,[3]; [6],not significantly affected
same,glucose tolerance,"[4]; GPR119 KO mice, 30 mg/kg oral",no effect
same,reduction of total glucose AUC,"[4]; WT mice, Example 1 30 mg/kg, DPPIV inhibitor 10 mg/kg oral",28%

# Source: patent publication US8222261B2, “Chemical compounds” (GlaxoSmithKline, LLC, priority 2006, dated 2012)
